Reference: patent US20240261274A1, “TREATMENT OF MYC-DRIVEN CANCERS WITH GSPT1 DEGRADERS” (MONTE ROSA THERAPEUTICS, INC., priority 2021, published 2024)

Columns and labels:
c-Myc = c-Myc levels in multiple myeloma and lymphoma cell lines after Compound 345 (western blot); type: cell-based; conditions: 24 hr post treatment
Excerpt: FIGS. 16A, 16B and 16C: Activity of Compound 345 in the c-Myc high multiple myeloma MM1S cell line. […] GAPDH was used as a loading control. […] Lenalidomide was used as a benchmark. 16C: Antiproliferative activity of Compound 345 (as indicated) following treatment with Compound 345 for 72 hr as assessed by Cell Titer Glo assay.
(§1) FIGS. 18A, 18B and 18C: Activity of Compound 345 in the c-Myc high WSU-DLCL2 lymphoma cell line. […] GAPDH was used as a loading control. 18B: Antiproliferative activity of Compound 345 (as indicated) following treatment with Compound 345 for 72 hr as assessed by Cell Titer Glo assay. […] Mice were dosed daily PO with vehicle or Compound 345 at 3, 10 mg/kg (as indicated). Tumor volumes were measured twice weekly. X-axis represents the number of days for treatment duration; y-axis represents mean tumor volume (in mm^3)±SEM. CHOP was used as a positive control for this model. Drug-free vehicle is represented by black circles; CHOP combination represented by light squares; Compound 345 3 mg/kg represented by triangles; Compound 345 10 mg/kg represented by dark squares.
as §1, with “19A, 19B,” for “18A, 18B”, “19C:” for “18C:”, “DOHH-2” for “WSU-DLCL2”, “19B:” for “18B:”, “model.” for “model. Drug-free vehicle is represented by black circles; CHOP combination represented by light squares; Compound 345 3 mg/kg represented by triangles; Compound 345 10 mg/kg represented by dark squares.”
Western blot analysis performed 24 hr post treatment initiation. GAPDH was used as a loading control. GSPT1 DC50 and Dmax as indicated.

MM1S cell line = assay: Caspase 3/7 apoptosis Glo assay in MM1S; type: cell-based; conditions: 48 hr treatment
N-Myc = N-Myc levels in NCI-H1155 tumors (Compound 345); type: in vivo, mice; conditions: day 5, 1 mg/kg and 10 mg/kg, strongest effect at 10 mg/kg
Experimental: Additionally, plasma concentrations of Compound 345 and levels of GSPT1 and […] (relative to vehicle-only control) were measured in a time-course experiment on day 5 for the animals receiving 1 mg/kg and 10 mg/kg.
GSPT1 and N-Myc western blotting analyses from NCI-H1155 tumors: The NCI-H1155 model was run as described previously and tumors were harvested following 5 consecutive daily PO doses of Compound 345 at 1.0 and 10 mg/kg. Tumors were lysed in 1× lysis buffer (CST, Cat. No. 9803, Lot No. 0000122383) supplemented with protease (Sigma, Cat. No. P8340) and phosphatase ((Sigma, Cat. No. P5726 and P0044) cocktail inhibitors using TissueLyser II (QIAGEN #85300). Samples were spined at 15,000 rpm in an Eppendorf microfuge for 15 min at 4° C. The protein supernatant was collected in a new 1.5 ml tube and the protein concentrations were determined by the Pierce BCA kit (Thermo, Cat. No. 23225). The tumor lysate samples were mixed with 5×SDS-PAGE loading buffer boiled for 5 min and brought to ice for 5 min. 30 μg of protein was loaded onto a NUPAGE 4-12% BT gel (Invitrogen, Cat. No. NPO336BOX) for separation. […] Membranes were imaged on the Odyssey imager (Li-COR) using fluorescence or cheminulinescence detection. […] Data are expressed as mean±SEM derived from at least three different mice and collected at 0, 2, 6, 12, 24, 48, 72 and 96 hr as indicated.

MM1 S cells = assay: Apoptosis assay, caspase 3/7 activity in MM1 S cells; type: cell-based; conditions: 0 to 30 μM, 48 hours
Experimental: For the same MM cell line, the effect of Compound 345 on apoptosis was evaluated. MM1 S cells were treated with Compound 345 in culture at increasing concentrations ranging from 0 to 30 μM and a control group was treated with lenalidomide, a well-known MM drug. After 48 hours, fold-change caspase 3/7 activity (a marker of apoptosis) was measured and plotted against concentration of Compound 345 compared to lenalidomide as the control. […] For the same MM cell line, the impact of Compound 345 on cell viability was evaluated. MM1 S cells were treated with Compound 345 in culture at increasing concentrations ranging from 0 to 100 μM. Cell viability was measured as a percentage survival after 72 hours.
Apoptosis assay: MM1S cells were sub-cultures as recommended by the providers (ATCC, DSMZ) and incubated at 37° C., 5% CO2. Briefly, cells were seeded in white 96-well plates (100 μL/well) at a density of 50000 cells/well and incubated overnight at 37° C. with 5% CO2. […] Cell apoptosis was assessed using the Caspase-Glo® 3/7 Assay kit as recommended by the manufacturer (Promega, Cat. No. G8091, Lot. No. 0000385738) and measurements were performed on the EnSpire multimode plate reader (Perkin Elmer). EC50 values were determined using Prism8.1.2 (GraphPad) and the asymmetric (five-parameter) equation and least squares fit.

[1] = test system: cells for which cereblon was knocked out; assay: Viability in cereblon knock-out cells; type: cell-based
Excerpt: X-axis axis represents m concentration of compound 8; y-axis represents viability normalized to DMSO.

Compound | c-Myc level (c-Myc; DOHH-2 lymphoma cell line) | c-Myc level (c-Myc; MM1S multiple myeloma cell line) | c-Myc level (c-Myc; WSU-DLCL2 lymphoma cell line) | apoptosis (Caspase 3/7) (MM1S cell line) | N-Myc level relative to vehicle-only control (N-Myc) | fold-change caspase 3/7 activity (apoptosis) (MM1 S cells) | induction of death (viability normalized to DMSO) [1]
O=C1CCC(N2Cc3ccc(COC(=O)Nc4cc(OC(F)(F)F)ccc4F)cc3C2=O)C(=O)N1 (stereo not shown) [Compound 345, (2-(2,6-dioxopiperidin-3-yl)-3-oxoisoindolin-5-yl)methyl(2-fluoro-5-(trifluoromethoxy)phenyl)carbamate] | downregulation of c-Myc | downregulation of c-Myc | downregulation of c-Myc | Apoptosis induction | substantially reduced | strong induction of apoptosis | 
Cc1ccc(NC(=O)NCc2ccc3c(c2)C(=O)N(C2CCC(=O)NC2=O)C3)cc1Cl (stereo not shown) [Compound 8] |  |  |  |  |  |  | did not induce death
